Data on 1 substance can be found in patent US20240138838A1, “SURFACE-MODIFIED ANASTOMOSIS DEVICE” (Washington University, priority 2022, published 2024).

In this assay the test system is HUVECs. Briefly: 2D angiogenesis assay, HUVECs on the hydrogel surface. Type of assay: cell-based, human. The protocol:
Angiogenesis and vascularization assays were adopted to optimize hydrogels with RGD. For the two-dimensional (2D) culture of HUVECs, cells (4×10^4/well in a 96-well plate) were plated on the surface of HA hydrogels (40 μL; HA-SH: 4 mg/mL and PEGDA: 5 mg/mL) with various concentrations of RGD (0, 0.01, 0.1, and 1 mM). Matrigel was used as a positive control. After 24 h, HUVECs were imaged after LIVE/DEAD staining. As for the 3D cell culture, to avoid cell precipitation onto the surface of the plate, the plate was first coated with the hydrogels (40 μL hydrogel; HA-SH: 4 mg/mL, PEGDA: 2 mg/mL, F127-SS-DA: 4 mg/mL; RGD: 0, 0.10, 0.25, and 0.50 mM). Then, HUVECs and hASCs mixed with hydrogel precursor solutions (0.75×10^6/mL hydrogel; 40 μL hydrogel) were plated on top of hydrogels. In addition, both cells were cultured inside hydrogels with F127-SS-DA or F127-DA (40 μL; HA-SH: 4 mg/mL, PEGDA: 2 mg/mL, RGD: 0.1 mM; F127-DA or F127-SS-DA: 2, 4, 8, 10, 20, and 50 mg/mL). The cells were imaged after immunostaining for F-actin. […]
Cell viability was examined with a LIVE/DEAD staining kit and then the images were captured by a Zeiss LSM 880 laser scanning confocal microscope. The cell morphology was also evaluated by immunostaining with Alexa Fluor Phalloidin 568 or 488 for F-actin and 4′,6-diamidino-2-phenylindole dihydrochloride (DAPI, Molecular Probes) for cell nuclei.

As to RGD, the “endothelial cell layer on the hydrogel surface” value (RGD at 1 mM) was “supported the formation of a full layer of endothelial cells”. Where the note is “RGD conjugated to a hyaluronic acid-based hydrogel, FIG. 18”, the endothelial cell adhesion entry is listed as “improved endothelial cell adhesion in a dose-dependent manner”.
